Source: patent publication US4038388A, “Antimicrobial compositions” (Paterson Zochonis & Company Limited, priority 1976, dated 1977)

Tests used:
Test in all cases: Antibiotic Sensitivity
Assay type in all cases: cell-based
Coliform 518 = system: Coliform 518; further: key: R: resistant; S: sensitive; SS: slightly sensitive
Coliform 608 = system: Coliform 608; further: key: R: resistant; S: sensitive; SS: slightly sensitive
Coliform 578 = system: Coliform 578; further: key: R: resistant; S: sensitive; SS: slightly sensitive
E. coli 566 = system: E. coli 566; further: key: R: resistant; S: sensitive; SS: slightly sensitive
E. coli 559 = system: E. coli 559; further: key: R: resistant; S: sensitive; SS: slightly sensitive
E. coli 604 = system: E. coli 604; further: key: R: resistant; S: sensitive; SS: slightly sensitive
E. coli 026 = system: E. coli 026; further: key: R: resistant; S: sensitive; SS: slightly sensitive
E. coli 9395 = system: E. coli 9395; further: key: R: resistant; S: sensitive; SS: slightly sensitive
Proteus 371 = system: Proteus 371
Proteus 20522 = system: Proteus 20522
Proteus 20029 = system: Proteus 20029
Proteus 20523 = system: Proteus 20523
Proteus 20531 = system: Proteus 20531
Pr. mirabilis 5887 = system: Pr. mirabilis 5887
Pr. mirabilis 25942 = system: Pr. mirabilis 25942
Pr. rettgeri 7475 = system: Pr. rettgeri 7475; further: key: R: resistant; S: sensitive; SS: slightly sensitive
Pr. vulgaris 4635 = system: Pr. vulgaris 4635; further: key: R: resistant; S: sensitive; SS: slightly sensitive
Pr. miribilis 25702 = system: Pr. miribilis 25702; further: key: R: resistant; S: sensitive; SS: slightly sensitive
Ps. multivorans BS = system: Ps. multivorans BS; further: key: R: resistant; S: sensitive; SS: slightly sensitive
Ps. multivorans MB = system: Ps. multivorans MB; further: key: R: resistant; S: sensitive; SS: slightly sensitive
Ps. aeruginosa 5267 = system: Ps. aeruginosa 5267; further: key: R: resistant; S: sensitive; SS: slightly sensitive
Ps. aeruginosa 1999 = system: Ps. aeruginosa 1999; further: key: R: resistant; S: sensitive; SS: slightly sensitive
Kleb, acrogenes 8172 = system: Kleb, acrogenes 8172; further: key: R: resistant; S: sensitive; SS: slightly sensitive
Kleb. aerogenes 22352 = system: Kleb. aerogenes 22352; further: key: R: resistant; S: sensitive; SS: slightly sensitive
Serratia marcescens = system: Serratia marcescens; further: key: R: resistant; S: sensitive; SS: slightly sensitive
Strep. faecalis 20190 = system: Strep. faecalis 20190; further: key: R: resistant; S: sensitive; SS: slightly sensitive
Strep. faecalia 559 = system: Strep. faecalia 559; further: key: R: resistant; S: sensitive; SS: slightly sensitive
Staph. albus 474 = system: Staph. albus 474; further: key: R: resistant; S: sensitive; SS: slightly sensitive
Staph. albus 476 = system: Staph. albus 476; further: key: R: resistant; S: sensitive; SS: slightly sensitive
Staph. albus 473 = system: Staph. albus 473; further: key: R: resistant; S: sensitive; SS: slightly sensitive
Staph. albus 479 = system: Staph. albus 479; further: key: R: resistant; S: sensitive; SS: slightly sensitive
Staph. aureus 20477 = system: Staph. aureus 20477; further: key: R: resistant; S: sensitive; SS: slightly sensitive
Staph. aureus 590 = system: Staph. aureus 590; further: key: R: resistant; S: sensitive; SS: slightly sensitive
Staph. pyogenes = system: Staph. pyogenes; further: key: R: resistant; S: sensitive; SS: slightly sensitive
Staph. aureus 7447 = system: Staph. aureus 7447; further: key: R: resistant; S: sensitive; SS: slightly sensitive
Candida albicans = system: Candida albicans; further: key: R: resistant; S: sensitive; SS: slightly sensitive

| Compound | Antibiotic Sensitivity (Coliform 518) | Antibiotic Sensitivity (Coliform 608) | Antibiotic Sensitivity (Coliform 578) | Antibiotic Sensitivity (E. coli 566) | Antibiotic Sensitivity (E. coli 559) | Antibiotic Sensitivity (E. coli 604) | Antibiotic Sensitivity (E. coli 026) | Antibiotic Sensitivity (E. coli 9395) | Antibiotic Sensitivity (Pr. rettgeri 7475) | Antibiotic Sensitivity (Pr. vulgaris 4635) | Antibiotic Sensitivity (Pr. miribilis 25702) | Antibiotic Sensitivity (Ps. multivorans BS) | Antibiotic Sensitivity (Ps. multivorans MB) | Antibiotic Sensitivity (Ps. aeruginosa 5267) | Antibiotic Sensitivity (Ps. aeruginosa 1999) | Antibiotic Sensitivity (Kleb, acrogenes 8172) | Antibiotic Sensitivity (Kleb. aerogenes 22352) | Antibiotic Sensitivity (Serratia marcescens) | Antibiotic Sensitivity (Strep. faecalis 20190) | Antibiotic Sensitivity (Strep. faecalia 559) | also measured |
| --- | --- | --- | --- | --- | --- | --- | --- | --- | --- | --- | --- | --- | --- | --- | --- | --- | --- | --- | --- | --- | --- |
| Oc1ccc(Cl)c2cccnc12 [CHQ, 5-chloro-8-hydroxyquinoline] | S | S | S | S | S | S | S | S | S | S | S | S | S | R | R | S | S | S | S | S | Antibiotic Sensitivity (Proteus 371): S; Antibiotic Sensitivity (Proteus 20522): S; Antibiotic Sensitivity (Proteus 20029): S; Antibiotic Sensitivity (Proteus 20523): S; Antibiotic Sensitivity (Proteus 20531): S; Antibiotic Sensitivity (Pr. mirabilis 5887): S; Antibiotic Sensitivity (Pr. mirabilis 25942): S; Antibiotic Sensitivity (Staph. albus 474): S; Antibiotic Sensitivity (Staph. albus 476): S; Antibiotic Sensitivity (Staph. albus 473): S; Antibiotic Sensitivity (Staph. albus 479): S; Antibiotic Sensitivity (Staph. aureus 20477): S; Antibiotic Sensitivity (Staph. aureus 590): S; Antibiotic Sensitivity (Staph. pyogenes): S; Antibiotic Sensitivity (Staph. aureus 7447): S; Antibiotic Sensitivity (Candida albicans): S |
| CN(C)[C@@H]1C(=O)C(C(N)=O)=C(O)[C@@]2(O)C(=O)C3=C(O)c4c(O)cccc4[C@@](C)(O)[C@H]3C[C@@H]12 [Tetracycline, tetracycline] | S | S | S | S | S | S | R | S | S | S | S | S | S | S | S | S | S | S | R | R | Antibiotic Sensitivity (Staph. albus 474): R; Antibiotic Sensitivity (Staph. albus 476): R; Antibiotic Sensitivity (Staph. albus 473): R; Antibiotic Sensitivity (Staph. albus 479): R; Antibiotic Sensitivity (Staph. aureus 20477): R; Antibiotic Sensitivity (Staph. aureus 590): R; Antibiotic Sensitivity (Staph. pyogenes): R; Antibiotic Sensitivity (Staph. aureus 7447): S; Antibiotic Sensitivity (Candida albicans): R |
